Measured values reported in BindingDB's records for doi:10.7270/Q2VT1QQ4 (Burnham Center For Chemical Genomics, 2012).

Target: T1, Xylosyl- and glucuronyltransferase LARGE1 (Homo sapiens, UniProt O95461)
T1 sequence (O95461 whole entry): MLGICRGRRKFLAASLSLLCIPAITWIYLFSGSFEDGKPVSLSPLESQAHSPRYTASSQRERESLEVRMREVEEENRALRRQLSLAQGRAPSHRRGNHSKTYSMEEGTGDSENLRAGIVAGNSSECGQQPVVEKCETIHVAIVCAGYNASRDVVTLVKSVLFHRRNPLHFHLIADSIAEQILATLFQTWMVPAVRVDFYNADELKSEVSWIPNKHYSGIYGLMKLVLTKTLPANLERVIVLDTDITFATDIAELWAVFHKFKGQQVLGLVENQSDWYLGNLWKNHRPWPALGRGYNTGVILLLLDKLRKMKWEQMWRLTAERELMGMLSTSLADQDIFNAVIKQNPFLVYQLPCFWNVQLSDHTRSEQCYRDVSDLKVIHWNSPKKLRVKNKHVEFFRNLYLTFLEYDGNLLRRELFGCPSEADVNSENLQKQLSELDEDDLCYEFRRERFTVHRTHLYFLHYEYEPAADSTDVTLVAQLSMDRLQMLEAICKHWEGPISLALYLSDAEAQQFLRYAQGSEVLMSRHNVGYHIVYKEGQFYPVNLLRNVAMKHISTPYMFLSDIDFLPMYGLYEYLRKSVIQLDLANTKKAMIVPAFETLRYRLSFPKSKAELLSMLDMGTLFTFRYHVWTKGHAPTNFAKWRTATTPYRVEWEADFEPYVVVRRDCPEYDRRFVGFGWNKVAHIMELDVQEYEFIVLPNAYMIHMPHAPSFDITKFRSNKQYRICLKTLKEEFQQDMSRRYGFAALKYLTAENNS

EC50: 4.97 µM
Structure (SMILES): Oc1c(Cl)c(N=Cc2ccco2)c(O)c2ccccc12 [2-chloranyl-3-(furan-2-ylmethylamino)naphthalene-1,4-dione]
